US7514450B2, “Azabicyclic aryl derivatives” (NeuroSearch A/S, priority 2004, dated 2009)
Where a name gives a salt, the structure may show the parent alone.

Target: T1, α7-subtype of nicotinic receptors (Rattus norvegicus, UniProt Q05941)
T1 construct: Cerebral cortices from male Wistar rats (150-250 g) are homogenised; from tissue; host or cells: rat cerebral cortex membrane homogenate
Test: In vitro inhibition of 3H-α-bungarotoxine binding in rat brain
Settings: rat cerebral cortex homogenate; 3H-α-bungarotoxine 2 nM; 2 hours at 37° C

T1 sequence (Q05941 23-502): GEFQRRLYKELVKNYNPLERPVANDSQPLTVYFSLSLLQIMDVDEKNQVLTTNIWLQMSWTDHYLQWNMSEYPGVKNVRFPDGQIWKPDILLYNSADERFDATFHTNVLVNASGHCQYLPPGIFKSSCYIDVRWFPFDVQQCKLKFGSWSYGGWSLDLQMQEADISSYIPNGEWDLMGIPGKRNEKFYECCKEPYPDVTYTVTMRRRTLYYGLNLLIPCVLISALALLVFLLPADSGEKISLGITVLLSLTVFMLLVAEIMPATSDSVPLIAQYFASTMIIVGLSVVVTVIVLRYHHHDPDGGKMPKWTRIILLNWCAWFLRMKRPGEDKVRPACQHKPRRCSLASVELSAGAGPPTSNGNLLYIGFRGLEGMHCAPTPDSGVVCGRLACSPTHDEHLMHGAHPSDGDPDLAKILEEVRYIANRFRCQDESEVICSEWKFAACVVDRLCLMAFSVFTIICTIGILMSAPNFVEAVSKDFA

Work on `O=C(Nc1ccc(-c2ccc(C(=O)NC3CN4CCC3CC4)o2)cc1)c1ccccc1` (racemic) [Compound 1, (±)5-(4-Benzoylamino-phenyl)-furan-2-carboxylic acid(1-aza-bicyclo[2.2.2]oct-3-yl)-amide hydrochloric acid salt] yielded an IC50 of 80 nM.
